From BindingDB's records for patent US20240287022 (Merck Sharp & Dohme, 2024)

Target: T1, L-amino-acid oxidase (Homo sapiens, UniProt Q96RQ9)
T1 sequence (Q96RQ9 whole entry): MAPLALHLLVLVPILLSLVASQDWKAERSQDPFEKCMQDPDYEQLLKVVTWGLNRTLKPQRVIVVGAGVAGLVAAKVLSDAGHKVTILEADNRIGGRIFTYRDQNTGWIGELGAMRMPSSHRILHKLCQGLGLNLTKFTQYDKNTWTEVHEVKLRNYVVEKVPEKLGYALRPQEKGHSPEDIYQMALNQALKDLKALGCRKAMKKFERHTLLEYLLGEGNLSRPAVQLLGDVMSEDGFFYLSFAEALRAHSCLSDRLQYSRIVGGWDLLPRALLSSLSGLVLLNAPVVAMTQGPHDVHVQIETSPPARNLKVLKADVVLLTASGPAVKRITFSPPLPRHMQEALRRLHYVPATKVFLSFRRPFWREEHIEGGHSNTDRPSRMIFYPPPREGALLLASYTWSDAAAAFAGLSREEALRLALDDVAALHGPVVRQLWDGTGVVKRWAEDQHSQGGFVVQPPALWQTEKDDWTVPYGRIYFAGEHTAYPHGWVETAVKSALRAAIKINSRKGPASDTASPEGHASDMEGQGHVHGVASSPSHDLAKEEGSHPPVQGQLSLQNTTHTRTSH
Experiment: IL4I1 Enzymatic Assay
Experimental: nterleukin 4 inducible protein 1 (IL4I1) is an L-amino oxidase that catalyzes the oxidation of aromatic residues (Phe, Trp and Tyr): L-amino acid+H2O+O2→2-oxo acid+NH3+H2O2. Equal molar of H2O2 and the corresponding alpha-ketoacid are produced when IL4I1 and substrate are added. In this assay, the hydrogen peroxide generated by IL4I1 are then detected through a coupled reaction with Amplex Red (10-acetyl-3,7-dihydroxyphenoxazine) and […] (HRP) to produce Resorufin product that could be detected in the form of fluorescence signals. The assessment of the inhibitory effect of small molecules (EC50) on IL4I1 is measured by the effectiveness of the compounds to inhibit the production of H2O2.Using this assay, the potency (EC50) of each compound was determined from a ten-point (1:3 serial dilution; top compound concentration of 10000 nM) titration curve using the following outlined procedure. To each well of a black flat-bottom Greiner (Cat #781076) 384 well-plate, 25 nL of compound (0.1% DMSO in final assay volume of 25 μL) was dispensed, followed by the addition of 12.5 μL of 1× assay buffer (50 mM Hepes 7.0 and 0.005% Tween20 (Sigma, Cat #P8341; low peroxide grade)) containing 2 nM of recombinant IL4I1 (R&D Systems, Cat #5684-AO-020). Plates were placed in an ambient temperature humidified chamber for a four-hour pre-incubation with compound. Subsequently, each reaction was initiated by the addition of 12.5 μL 1× assay buffer containing 2 mM of each aromatic amino acids (Phe/Tyr/Trp), 0.1 mM Amplex Red and 2 U/mL of HRP. The final reaction in each well of 25 μL consists of 1 nM of IL4I1, 1 mM of each residues (Phe, Tyr and Trp), 0.05 mM Amplex Red and 1 U/mL of HRP. It should be noted that the concentrations of Amplex Red and HRP used here are in excess such that the conversion of H2O2 to Resorufin product occurs instantaneously and non-rate limiting.

| SMILES | EC50 |
| --- | --- |
| O=c1[nH]c2ccccc2cc1Cc1ccc(C2(F)CNC2)cc1 [US20240287022, Example 76] | 8.2 nM |
| N#CCc1ccc(Cc2cc3ccccc3[nH]c2=O)cn1 [US20240287022, Example 93] | 14.4 nM |
| O=c1[nH]c2ccncc2cc1Cc1ccc2scnc2c1 [US20240287022, Example 114] | 1.5 nM |
| Cn1c(=O)c(Cc2ccc(Cc3nnco3)cc2)cc2ccccc21 [US20240287022, Example 145] | 154 nM |
